Test results published in patent US20170224833A1, “SELF-ASSEMBLING MOLECULES THAT ACCUMULATE IN ACIDIC TUMOR MICROENVIRONMENTS” (OHIO STATE INNOVATION FOUNDATION, priority 2014, published 2017).
Residues, ends and D or L forms follow the SMILES beside them. No end group written: not given here. *: point of attachment. Rubipy = bis(2,2'-bipyridine)-4'-methyl-4-carboxybipyridine ruthenium(II), conjugated to the lysine epsilon-amine; Palmitoyl = CCCCCCCCCCCCCCCC(=O)*

How the values were obtained:
Format in all cases: physicochemical
[1] = Circular dichroism (CD) spectroscopy of pH-triggered self-assembly transition in 150 mM NaCl, 2.2 mM CaCl2; settings: for CD Transition pH: 10 μM PA, 150 mM NaCl, 2.2 mM CaCl2, random coil to β-sheet
Protocol: The target PA concentration (10 μM) was below the detectable limit of conventional techniques to determine the morphology such as cryoTEM and small-angle X-ray scattering. Consequently, circular dichroism (CD) spectroscopy was initially used to characterize the morphology of these PAs at various pH values. PA1 was the first molecule synthesized that underwent a self-assembly transition in the desired pH range of 6.6-7.4 at 10 μM PA concentration, in 150 mM NaCl and 2.2 mM CaCl2 (FIG. 2A) (Goldberger, J. E., et al. Angew. Chem. Int. Ed. 2011 50:6292-95). […] The transition pH from random coil to β-sheet occurred at a pH of 6.6. The transition pH was defined as the value at which the ellipticity at 205 nm rises to zero, followed by the appearance of a minimum at 218-220 nm.
Measurements were done on a Jasco-815 Circular Dichroism spectrometer using 1 cm path length quartz cuvettes. 10 μM solutions of peptide amphiphiles were prepared in 150 mM NaCl and 2.2 mM CaCl2 by dilution from a concentrated PA stock (0.5-1 mM, pH 9). Double de-ionized Milli-Q water was used for preparing all solutions. The solutions were then heated at 80° C. for 30 minutes in a water bath and gradually cooled to room temperature. An Accumet XL15 pH meter (Fisher Scientific) coupled with an Orion Ross Ultra semi-micro electrode (8103BNUWP, Thermo Scientific) was used to adjust the pH of the solution to the desired value followed by collection of the CD spectra Each trace shown was averaged over 3 accumulations and was baseline subtracted using aqueous solutions containing salts only. All spectra are cut-off below 205 nm due to absorption by NaCl and CaCl2.
Measurements were done on a Jasco-815 Circular Dichroism spectrometer using 0.5-1 cm path length quartz cuvettes. 500-10 μM of either pure PA or PA mixtures were prepared in 150 mM NaCl and 2.2 mM CaCl2 (and 1.8 mM 20 kDa PEG in select samples) by dilution from a concentrated PA stock (0.5-1 mM, pH 9). Double de-ionized Milli-Q water was used for preparing all solutions. The solutions were then heated at 80° C. for 30 minutes in a water bath and gradually cooled to room temperature. An Accumet XL15 pH meter (Fisher Scientific) coupled with an Orion Ross Ultra semi-micro electrode (8103BNUWP, Thermo Scientific) was used to adjust the pH of the solution to the desired value followed by collection of the CD spectra. Each trace shown was averaged over 3 accumulations and was baseline subtracted using aqueous solutions containing salts only. All spectra are cut-off below 200 nm due to absorption by NaCl and CaCl2. The same procedure was followed for the salt control samples with 3.0 and 4.0 mM CaCl2.
Self-assembly behavior is known to be extremely sensitive to minor changes in monomer structure and presence of impurities. […] CAC measurements via the pyrene 1:3 method (Das, D. et al. J. Colloid Interface Sci. 2008, 327:198) were used to ascertain the single molecule to spherical micelle transitions at varying pH values (FIGS. 24A-24C). CD Spectroscopy was used to determine the pH points at which different concentrations (10-500 μM) of the PA molecules transitioned from a random coil to a β-sheet secondary structure (FIGS. 25A-25C). It has been previously shown that the random coil and β-sheet structures correspond to spherical micellar/isolated molecule and nanofiber morphologies respectively (Ghosh, A. et al. J. Am. Chem. Soc. 2012, 134:3647). The CD transition point was defined to be the pH value at which the ellipticity at 200 nm rose from a negative value (random coil) to zero accompanied by the appearance of a minimum at 218-220 nm. The addition of PA66 shifted the CD transition pH to more basic values by ˜0.6 pH units. […] This ˜0.6 pH shift in CD transition pH to more basic values were also observed when 1.5% of PA67 was added to PA65. […]

[2] = Transmission electron microscopy (TEM) of self-assembled morphology
Protocol: TEM images were obtained using solutions of either 10 μM or 0.5 mM peptide amphiphile concentration, as well as 150 mM NaCl and 2.2 mM CaCl2 in Milli-Q water. The solutions were first heated at 80° C. for 30 minutes in a water bath and then gradually cooled to room temperature. This was followed by pH adjustment using either HCl or NaOH. 5 μL of this solution was pipetted onto a Carbon Formvar grid (Electron Microscopy Sciences) and allowed to sit for 2 minutes before being wicked dry using filter paper. For the 10 μM experiments that were performed to determine the time dependence of nanofiber formation, solutions were dropcast onto the grid within three minutes of pH adjustment. The samples were then negatively stained using 1 wt % uranyl acetate and imaged under a FEI Tecnai G2 Bio TWIN TEM system, operating at 100 kV. All TEM experiments were performed in triplicate, using at least three different freshly prepared solutions and grids. […]
TEM images were obtained at various concentrations and pH values, with 150 mM NaCl and 2.2 mM CaCl2 in deionized water. Solutions were heated at 80° C. for 30 minutes and gradually cooled to room temperature. Following temperature equilibration, pH adjustment was achieved using HCl or NaOH. 5 μL of this solution was pipetted onto a Carbon Formvar grid (Electron Microscopy Sciences) and allowed to sit for 2 minutes before being wicked dry using filter paper strips. The samples were negatively stained with 1 wt % uranyl acetate and imaged under a FEI Tecnai G2 Bio TWIN TEM system operating at 100 kV.
Transmission electron microscopy was employed to confirm the self-assembled morphology at different pH values and concentrations. The sample to be tested was basified to a pH of 10, stirred at 90° C. in an oil bath for 30 minutes and cooled to room temperature. The pH was then adjusted with HCl and NaOH to set the peptide solution (in 150 mM NaCl and 2.2 mM CaCl2) to a pH of either 5 or 9. Once the desired pH was reached, 5 μL of the sample was placed and spread onto a Carbon Formvar grid (Electron Microscopy Sciences) and allowed to sit for one minute before being wicked dry with filter paper. A 1 wt % uranyl acetate solution was added and spread over the grid to negatively stain the sample, and was wicked dry immediately after application. The grid was then examined by a FEI Tecnai G2 Biotwin TEM at 100 keV. The diameters of each self-assembled morphology was determined via averaging at least 30 different objects.

[3] = MRI r1 relaxivity measurement, 1.5 Tesla; settings: control standard, 1.5 T
Protocol: An MR relaxometry phantom was built by fixing 5 mm NMR sample tubes containing PA samples at a concentration of 500 μM and pH values 4 and 10 in a 600 ml beaker filled with deionized water. The samples also contained 150 mM NaCl and 2.2 mM CaCl2. The phantom was scanned on a 1.5 Tesla Signa Excite MRI scanner using an 8-channel phased-array head coil (GE Healthcare, Milwaukee, Wis., USA). R relaxometry data were acquired using an Inversion Recovery Fast Spin-Echo (IR-FSE) sequence with the following parameters: inversion time TI=50/100/200/400/600/800/1200/1600/3200 ms; repetition time TR=8000 ms; echo time TE=11 ms; echo train length=10; 90° flip angle; 100×100 mm^2 field-of-view (FOV); 0.5 mm in-plane resolution; 2 mm slice thickness; single coronal slice placed at the center of the phantom. Sample longitudinal relaxation rates (R1) were calculated by fitting the MR signal intensities observed at different TIs (S(TI)) to a three parameter model [Lu et al., MRM 2004]:
S(TI)=|S0×(1−C×exp(−TI×R1))|
Where S0 is the equilibrium signal, C is a constant accounting for imperfect inversion of magnetization. The r1 relaxivity was calculated as the slope in the linear relationship between sample concentrations and their R1 relaxation rates.

[4] = Fluorescence anisotropy (FA) in mouse blood serum (pure or diluted); settings: only 1.5% PA67 isolated molecules in serum (control)
Protocol: Fluorescence and FA measurements were done using 20-100 μM of PA mixtures in 150 mM NaCl and 2.2 mM CaCl2 and various serum (MP Biomedicals) concentrations (0.75-100% v/v) diluted in the same salt buffer. PA samples in serum or MSA were not heated and cooled. All samples were then pH adjusted using HCl/NaOH solutions, transferred to a 96-well plate followed by collection of fluorescence emission from PA-(Rubipy)3 first parallel (Ipar) and then perpendicular (Iperp) to the excitation polarization using a hybrid reader fluorimeter (BioTek Synergy H4) at room temperature. The excitation wavelength used was 458 nm and the emission was monitored using a 640/20 nm filter. The same method was followed for control experiments involving serum background samples, dye conjugated MSA, only 1.5% PA-(Rubipy)3 in serum and 100 μM PA mixture in MSA and salt buffer. FA was calculated using the following equation: […]

[5] = pH titration of peptide amphiphiles (pKa); settings: 10 μM
Protocol: The titration measurements were conducted on 10 μM peptide amphiphile solutions prepared in 150 mM NaCl and 2.2 mM CaCl2 using milli-Q water. The solution was heated at 80° C. for 30 minutes followed by slow cooling at room temperature. The pH of the solution was then adjusted to 4 using HCl. Finally, an Accumet XL15 pH meter (Fisher Scientific) coupled with an Orion Ross Ultra semi-micro electrode (8103BNUWP, Thermo Scientific) was used to track changes in pH of the solution as NaOH solution was added in small increments. pKa values were obtained from the second inflection points of the first derivative plots of the titration data. The first transition corresponds to neutralization of excess HCl. The calculated pKas reflect the average pKa for all four glutamic acids.

[6] = basic to acidic transition from small molecule to cylindrical nanofiber, simulated serum environment
[7] = basic to acidic transition from spherical micelle to cylindrical fiber, simulated serum environment (150 mM NaC, 2.2 mM CaCl2)

Palmitoyl-VAAAEEKE-NH2 [PA11]
pH transition point at 10 μm PA [1, 6]: 6.2

palmitoyl-YYAAEEEEK(DO3A:Gd)-NH2 [PA73]
nanofiber diameter ([2]; 500 μM, pH 5): 8.5±1.0 nm | nanofiber diameter ([2]; 500 μM, pH 9): 8.6±0.9 nm | CD pattern ([1]; 10 μM, pH 5-11): β-sheet pattern

Palmitoyl-VAAAEEEEK(DO3A:Gd)-NH2 (Palmitoyl-VAAAEEEEK(DO3A)-NH2; also: DO3A chelates Gd) [PA6]
pH transition point at 10 μm PA [1, 7]: 5.3 | nanofiber to micelle transition pH, lower than PA5 ([1]; for each concentration (10 μM, 500 μM)): 0.4 units

Palmitoyl-IAAAEEEEK(DO3A:Lu)-NH2 (Palmitoyl-IAAAEEEEK(DO3A)-NH2; also: DO3A chelates Lu) [PA8]
pH transition point at 10 μm PA [1, 7]: 5.7

Palmitoyl-YAAAEEEEK(DO3A:Gd)-NH2 (Palmitoyl-YAAAEEEEK(DO3A)-NH2; also: DO3A chelates Gd) [PA9]
pH transition point at 10 μm PA [1, 7]: 5.1

pentadecyl-YYAAEEEEK(DO3A:Gd)-NH2 [PA75]
nanofiber diameter ([2]; FIG. 50: pH 5, PA74 500 μM, PA75 100 μM): 8.1±1.3 nm | morphology by TEM ([2]; pH 5, PA74 500 μM, PA75 100 μM): nanofiber morphology | morphology by TEM ([2]; pH 9, PA74 500 μM, PA75 100 μM): spherical micelle morphology | micelle to nanofiber transition pH, more basic than PA74 ([1]; all concentrations observed): 0.15-0.63 pH units

CNC[C@H](O)[C@@H](O)[C@H](O)[C@H](O)CO.CNC[C@H](O)[C@@H](O)[C@H](O)[C@H](O)CO.O=C([O-])CN(CCN(CC(=O)[O-])CC(=O)O)CCN(CC(=O)[O-])CC(=O)O.[Gd+3] [Magnevist, reference compound]
relaxivity of water protons [3]: 4.5 mM⁻¹ s⁻¹

CCCCCCCCCCCCCCCC(=O)N[C@@H](Cc1ccccc1)C(=O)N[C@@H](C)C(=O)N[C@@H](C)C(=O)N[C@@H](C)C(=O)N[C@@H](CCC(=O)O)C(=O)N[C@@H](CCC(=O)O)C(=O)N[C@@H](CCC(=O)O)C(=O)N[C@@H](CCC(=O)O)C(N)=O [PA2] (Palmitoyl-FAAAEEEE-NH2)
CD Transition pH [1]: 6.6 | pH transition point at 10 μm PA [1, 6]: 6.6

Palmitoyl-MAAAEEEEK-Rubipy (Palmitoyl-MAAAEEEEK(Rubipy); not fully specified (C-terminus); printed as Palmitoyl-MAAAEEEEK-Rubipy) [PA67]
FA, constant independent of pH [4]: ~0.05

Palmitoyl-IAAAEEEEK(DO3A:Tb)-NH2 (Palmitoyl-IAAAEEEEK(DO3A)-NH2; also: DO3A chelates Tb) [PA7]
pH transition point at 10 μm PA [1, 7]: 5.7

CCCCCCCCCCCCCCCC(=O)N[C@@H](Cc1ccc(O)cc1)C(=O)N[C@@H](C)C(=O)N[C@@H](C)C(=O)N[C@@H](C)C(=O)N[C@@H](CCC(=O)O)C(=O)N[C@@H](CCC(=O)O)C(=O)N[C@@H](CCC(=O)O)C(=O)N[C@@H](CCC(=O)O)C(N)=O [PA4] (Palmitoyl-YAAAEEEE-NH2)
glutamic acids in the deprotonated form at the transition [5]: 91% | CD Transition pH [1]: 6.0 | pH transition point at 10 μm PA [1, 6]: 6.0
